Assay results published in patent publication US20210255193A1, “LYSINE REACTIVE PROBES AND USES THEREOF” (The Scripps Research Institute, priority 2017, published 2021).
Values belong to the compound of their own block, whether it stands above or below them.

How the values were obtained:
[1] = target: T1, RQCD1 Cell differentiation protein RCD1 homolog (Homo sapiens, UniProt Q92600); experiment: competitive isoTOP-ABPP; format: binding; conditions: for isoTOP-ABPP ratio (R) at liganded lysine Q92600_K230: sol, 231
T1 construct: isoTOP-ABPP experiments performed in cell lysates (in vitro); endogenous in cells; host or cells: soluble proteome of human cancer cell lines (MDA-MB-231; Ramos and Jurkat also prepared)
T1 sequence (Q92600 whole entry): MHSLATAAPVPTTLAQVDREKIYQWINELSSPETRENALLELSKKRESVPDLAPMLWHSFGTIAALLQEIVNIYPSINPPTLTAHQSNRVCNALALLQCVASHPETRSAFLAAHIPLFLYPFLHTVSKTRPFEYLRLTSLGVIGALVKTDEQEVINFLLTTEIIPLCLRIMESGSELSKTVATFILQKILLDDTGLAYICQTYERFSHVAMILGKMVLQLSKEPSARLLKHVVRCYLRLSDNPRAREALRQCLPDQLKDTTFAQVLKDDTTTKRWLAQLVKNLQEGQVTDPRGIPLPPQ
Summary of the method: (§1)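 Fragments at 50 μM (activated esters) or 100 μM (guanidinylating agents) were incubated with 0.5 ml lysate before probe labeling. After 0.1 mM STP-alkyne for 1 h, samples were clicked to isotopically distinct TEV tags, and R taken as DMSO-over-compound MS1 peak-area ratio.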

[2] = target: T2, PFKL 6-phosphofructokinase, liver type (Homo sapiens, UniProt P17858); experiment: competitive isoTOP-ABPP; format: binding; conditions: for isoTOP-ABPP ratio, lysine P17858_K677: possible other lysine P17858_K681; for isoTOP-ABPP ratio, lysine P17858_K715: possible other lysine P17858_K714
T2 construct: isoTOP-ABPP experiments performed in cell lysates (in vitro); endogenous in cells; host or cells: soluble proteome of human cancer cell lines (MDA-MB-231; Ramos and Jurkat also prepared)
T2 sequence (P17858 1-780): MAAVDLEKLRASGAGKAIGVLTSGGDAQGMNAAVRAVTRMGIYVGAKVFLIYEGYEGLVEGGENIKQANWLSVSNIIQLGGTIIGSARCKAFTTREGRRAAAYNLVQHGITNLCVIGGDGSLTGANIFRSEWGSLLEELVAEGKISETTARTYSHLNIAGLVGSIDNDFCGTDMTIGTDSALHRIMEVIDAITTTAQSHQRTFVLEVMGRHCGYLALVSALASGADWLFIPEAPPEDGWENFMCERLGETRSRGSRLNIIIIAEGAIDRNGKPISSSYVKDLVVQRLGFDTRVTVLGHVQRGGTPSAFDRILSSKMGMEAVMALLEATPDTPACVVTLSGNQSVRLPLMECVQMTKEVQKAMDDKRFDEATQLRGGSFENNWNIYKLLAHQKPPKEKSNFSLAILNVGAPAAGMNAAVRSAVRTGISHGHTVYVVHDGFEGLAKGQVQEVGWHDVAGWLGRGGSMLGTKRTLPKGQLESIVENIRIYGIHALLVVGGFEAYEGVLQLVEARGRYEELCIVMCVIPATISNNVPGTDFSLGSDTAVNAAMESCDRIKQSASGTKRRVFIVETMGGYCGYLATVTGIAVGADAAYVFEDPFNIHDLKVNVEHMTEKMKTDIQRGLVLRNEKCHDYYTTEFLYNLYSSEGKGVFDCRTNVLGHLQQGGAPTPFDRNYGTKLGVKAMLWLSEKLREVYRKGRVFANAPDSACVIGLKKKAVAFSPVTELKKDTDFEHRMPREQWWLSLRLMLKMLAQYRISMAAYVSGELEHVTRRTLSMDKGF
Summary of the method: as §1

SMILES: O=C(Oc1ccc([N+](=O)[O-])cc1[N+](=O)[O-])C1CCN(C(=O)OCc2ccccc2)CC1 [fragment 34, 1-Benzyl 4-(2,4-dinitrophenyl) piperidine-1,4-dicarboxylate]
isoTOP-ABPP ratio (R) at liganded lysine Q92600_K230 ([1]; 50 uM, in vitro): 0.8
isoTOP-ABPP ratio (R) at liganded lysine P17858_K677 ([2]; 50 uM, in vitro, sol, 231): 2.8
isoTOP-ABPP ratio (R) at liganded lysine P17858_K715 ([2]; 50 uM, in vitro, sol, 231): 1.3

SMILES: O=C(CC12CC3CC(CC(C3)C1)C2)Oc1ccc([N+](=O)[O-])cc1[N+](=O)[O-] [fragment 38, 2,4-Dinitrophenyl 2-(adamantan-1-yl)acetate]
isoTOP-ABPP ratio (R) at liganded lysine Q92600_K230 ([1]; 50 uM, in vitro): 0.9
isoTOP-ABPP ratio (R) at liganded lysine P17858_K315 ([2]; 50 uM, in vitro, sol, 231): 0.4
isoTOP-ABPP ratio (R) at liganded lysine P17858_K677 ([2]; 50 uM, in vitro, sol, 231): 1.3
isoTOP-ABPP ratio (R) at liganded lysine P17858_K715 ([2]; 50 uM, in vitro, sol, 231): 20.0

SMILES: CC(C)(C)OC(=O)N=C(NC(=O)OC(C)(C)C)n1cccn1 [fragment 50, reference compound]
isoTOP-ABPP ratio, lysine Q92600_K230 ([1]; 100 uM_231_sol_in vitro): 1.0
isoTOP-ABPP ratio, lysine P17858_K677 ([2]; 100 uM_231_sol_in vitro): 20.0
isoTOP-ABPP ratio, lysine P17858_K715 ([2]; 100 uM_231_sol_in vitro): 2.9

SMILES: O=C(CCc1coc2cc(F)ccc2c1=O)Oc1ccc([N+](=O)[O-])cc1[N+](=O)[O-] [fragment 36, 2,4-Dinitrophenyl 3-(7-fluoro-4-oxo-4H-chromen-3-yl)propanoate]
isoTOP-ABPP ratio (R) at liganded lysine Q92600_K230 ([1]; 50 uM, in vitro): 2.5
isoTOP-ABPP ratio (R) at liganded lysine P17858_K677 ([2]; 50 uM, in vitro, sol, 231): 20.0
isoTOP-ABPP ratio (R) at liganded lysine P17858_K715 ([2]; 50 uM, in vitro, sol, 231): 20.0

Results, then the compound that gave them:

isoTOP-ABPP reactivity ratio at lysine Q92600_K230 ([1]; 50 uM, 231 sol, in vitro): 1.2
isoTOP-ABPP reactivity ratio at lysine P17858_K677 ([2]; 50 uM, 231 sol, in vitro): 20.0
isoTOP-ABPP reactivity ratio at lysine P17858_K715 ([2]; 50 uM, 231 sol, in vitro): 1.5
SMILES: O=C(CCc1coc2cc(F)ccc2c1=O)Oc1c(F)c(F)c(F)c(F)c1F [fragment 26, Pentafluorophenyl 3-(7-fluoro-4-oxo-4H-chromen-3-yl)propanoate]

isoTOP-ABPP ratio, lysine Q92600_K230 ([1]; 50 uM_231_sol_in vitro): 0.8
isoTOP-ABPP ratio, lysine P17858_K315 ([2]; 50 uM_231_sol_in vitro): 1.0
isoTOP-ABPP ratio, lysine P17858_K677 ([2]; 50 uM_231_sol_in vitro): 1.0
isoTOP-ABPP ratio, lysine P17858_K715 ([2]; 50 uM_231_sol_in vitro): 1.0
SMILES: O=C(Oc1c(F)c(F)c(C(F)(F)F)c(F)c1F)c1cc(C(F)(F)F)cc(C(F)(F)F)c1 [fragment 47, 2,3,5,6-Tetrafluoro-4-(trifluoromethyl)phenyl 3,5-bis(trifluoromethyl)benzoate]

isoTOP-ABPP ratio, lysine Q92600_K230 ([1]; 100 uM_231_sol_in vitro): 1.1
isoTOP-ABPP ratio, lysine P17858_K715 ([2]; 100 uM_231_sol_in vitro): 1.8
SMILES: COC(=O)NC(=NC(=O)OCC1c2ccccc2-c2ccccc21)n1cccn1 [fragment 49, N-Methoxycarbonyl-N′-9-fluorenylmethoxycarbonyl-pyrazole-1-carboxamidine]

R value (DMSO/fragment) for probe 1 labeling ([1]; Q92600_K230, 50 uM, 231 sol, in vitro): 1.0
R value (DMSO/fragment) for probe 1 labeling ([2]; P17858_K315, 50 uM, 231 sol, in vitro): 1.0
R value (DMSO/fragment) for probe 1 labeling ([2]; P17858_K677, 50 uM, 231 sol, in vitro): 1.2
R value (DMSO/fragment) for probe 1 labeling ([2]; P17858_K715, 50 uM, 231 sol, in vitro): 1.6
SMILES: O=C(CCc1cn(-c2ccccc2)nc1-c1ccccc1)Oc1c(F)c(F)c(F)c(F)c1F [fragment 19, Pentafluorophenyl 3-(1,3-diphenyl-1H-pyrazol-4-yl)propanoate]
